From the supplement of paper PMC8671470
Counter-ions that a name gives are not always drawn.

Tests used:
Assay in all cases: cell viability (% survival relative to DMSO control); higher = less cytotoxic
Conditions in all cases: 72 h
[1] = tested on: myeloid leukemia patient primary cells Pat.1
Outline: (§1)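 Thawed, Ficoll-purified mononuclear cells from AML or CML patients in RPMI 1640 with 10% FBS were seeded at 10,000 cells/well on 384-well plates pre-printed with 70 compounds at five tenfold concentrations, 1–10,000 nM, in duplicate, for 72 h. Viability was read by CellTiter-Glo and normalised to DMSO and 10 μM proteasome-inhibitor wells. Where given, area under the curve came from four-parameter log-logistic fits (drc, PharmacoGx R packages).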

[2] = tested on: myeloid leukemia patient primary cells Pat.9
Outline: as §1

[3] = tested on: myeloid leukemia patient primary cells Pat.11
Outline: as §1

[4] = tested on: myeloid leukemia patient primary cells Pat.6
Outline: as §1

[5] = tested on: myeloid leukemia patient primary cells Pat.3
Outline: as §1

[6] = tested on: myeloid leukemia patient primary cells Pat.7
Outline: as §1

[7] = tested on: myeloid leukemia patient primary cells Pat.5
Outline: as §1

[8] = tested on: myeloid leukemia patient primary cells Pat.10
Outline: as §1

[9] = tested on: myeloid leukemia patient primary cells Pat.4
Outline: as §1

[10] = tested on: HL-60
Description: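 8x8 drug-combination matrices (0-5000 nM; rosiglitazone and lestaurtinib 0-1000 nM) were run in HL-60 cells for 72 h with a CellTiter-Glo read-out. Survival is normalised to DMSO and 10 µM bortezomib and clipped at 100%. Bliss synergy was analysed in SynergyFinder.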

CO[C@H]1C[C@@H]2CC[C@@H](C)[C@@](O)(O2)C(=O)C(=O)N2CCCC[C@H]2C(=O)O[C@H]([C@H](C)C[C@@H]2CC[C@@H](OCCO)[C@H](OC)C2)CC(=O)[C@H](C)/C=C(\C)[C@@H](O)[C@@H](OC)C(=O)[C@H](C)C[C@H](C)/C=C/C=C/C=C/1C [Everolimus]
cell viability [%]
Conditions | [1] | [2] | [3] | [4] | [5] | [6] | [7] | [8] | [9]
1 nM | 88.6 | 64.2 | 90.6 | 96.2 | 78.6 | 85 | 49.5 | 34.9 | 64.8
10 nM | 56.4 | 22.3 | 83.8 | 92.4 | 5.05 | 68.8 | 20.5 | 31.3 | 57.9
100 nM | 74 | 87.7 | 89.2 | 99.1 | 94.1 | 99.3 | 23 | 34.9 | 47
1000 nM | 60.2 | 15.7 | 87.3 | 87.4 | 42.3 | 79.1 | 9.25 | 41.7 | 47.3
10000 nM | 41.2 | 0.492 | 70.2 | 53.5 | 7.24 | 2.34 | 0.912 | 11.8 | 41.9

CN(CCOc1ccc(Cc2sc(O)nc2O)cc1)c1ccccn1 [Rosiglitazone] + CC(C)(Cc1ccccc1)NCC(O)c1ccc(O)c(NS(C)(=O)=O)c1 [Zinterol hydrochloride]
cell viability [%], [10]
Conditions | drug1 concentration 1 nM | drug1 concentration 5 nM | drug1 concentration 10 nM | drug1 concentration 50 nM | drug1 concentration 100 nM | drug1 concentration 500 nM | drug1 concentration 1000 nM
drug2 concentration 5 nM | 87.9 | 41.2 | > 100 | 97.5 | > 100 | > 100 | > 100
drug2 concentration 10 nM | 63.4 | 95.3 | > 100 | > 100 | 62.7 | > 100 | > 100
drug2 concentration 50 nM | 83.3 | 83 | 83.9 | > 100 | 58.8 | > 100 | 92.8
drug2 concentration 100 nM | > 100 | 92.2 | 90.1 | > 100 | 80.5 | 78.9 | > 100
drug2 concentration 500 nM | 90.1 | > 100 | > 100 | 95.3 | > 100 | 72.1 | 80.8
drug2 concentration 1000 nM | 40.6 | > 100 | > 100 | > 100 | > 100 | 60.1 | > 100
drug2 concentration 5000 nM | 59.8 | 94.4 | > 100 | > 100 | > 100 | > 100 | 97.7

O=C(O)CC[N+](=O)[O-] [3-nitropropionic acid] + CCn1c(=Cc2cccc[n+]2CC)sc(=C2Sc3ccccc3N2C)c1=O [MKT 077]
cell viability [%], [10]
Conditions | drug1 concentration 5 nM | drug1 concentration 10 nM | drug1 concentration 50 nM | drug1 concentration 100 nM | drug1 concentration 500 nM | drug1 concentration 1000 nM | drug1 concentration 5000 nM
drug2 concentration 5 nM | 95.5 | 92.9 | 74.5 | > 100 | > 100 | > 100 | 88.8
drug2 concentration 10 nM | > 100 | > 100 | > 100 | > 100 | > 100 | > 100 | > 100
drug2 concentration 50 nM | > 100 | 92.7 | > 100 | 98.3 | 97.7 | > 100 | > 100
drug2 concentration 100 nM | 91.2 | 83.3 | 56.4 | > 100 | 99.2 | 50.3 | > 100
drug2 concentration 500 nM | 99.2 | 84.2 | > 100 | > 100 | > 100 | 84.7 | 86.6
drug2 concentration 1000 nM | > 100 | > 100 | > 100 | > 100 | 84 | > 100 | 67.3
drug2 concentration 5000 nM | > 100 | 79.2 | > 100 | 84.7 | > 100 | > 100 | 99.6

O=C(O)CC[N+](=O)[O-] [3-nitropropionic acid]
cell viability [%]
Conditions | [1] | [2] | [3] | [4] | [5] | [6] | [7] | [8] | [9]
1 nM | 84.1 | 80.9 | 97.4 | > 100 | 91.5 | 98.1 | 85.9 | 90.9 | 83.6
10 nM | 94.1 | 66.3 | 90.2 | 93 | 93.8 | 99.9 | 50.1 | 83.7 | 84.5
100 nM | > 100 | 81.6 | 97.5 | > 100 | 99.8 | 82.6 | 81.8 | 74.7 | 99.3
1000 nM | 88.4 | 71.5 | 99.5 | 96.8 | 92.1 | 90.8 | 67.1 | 76.2 | 95.6
10000 nM | 68.5 | 2.42 | 97.4 | 90 | 3.01 | 44.9 | 0.265 | 36.6 | 5.84

Cc1cc2c(C(C)C)c(O)c(O)c(C=O)c2c(O)c1-c1c(C)cc2c(C(C)C)c(O)c(O)c(C=O)c2c1O [Gossypol]
cell viability [%]
Conditions | [1] | [2] | [3] | [4] | [5] | [6] | [7] | [8] | [9]
1 nM | 82.1 | 63.1 | 98.5 | 99.8 | 96.5 | 72.1 | 98.7 | 89.2 | 84.4
10 nM | 92.5 | 7.88 | 98.9 | 80.8 | 28 | 28.8 | 6.75 | 41.6 | 90.7
100 nM | 92.2 | 22 | 91.9 | 84.4 | 70.6 | 60.8 | 22.8 | 43.3 | 77.1
1000 nM | 78.8 | 6.35 | 84.6 | 83.7 | < 0 | < 0 | 5.84 | 2.16 | 81.5
10000 nM | 14.3 | 28.7 | 11.6 | 20.9 | 3.08 | < 0 | 93.9 | 89.9 | 8.19

CCn1c(=Cc2cccc[n+]2CC)sc(=C2Sc3ccccc3N2C)c1=O [MKT 077] + CN(C)CCNC(=O)c1cccn2c(=O)c3cc4ccccc4cc3nc12 [Bmh-21]
cell viability [%], [10]
Conditions | drug1 concentration 5 nM | drug1 concentration 10 nM | drug1 concentration 50 nM | drug1 concentration 100 nM | drug1 concentration 500 nM | drug1 concentration 1000 nM | drug1 concentration 5000 nM
drug2 concentration 5 nM | 72.8 | > 100 | > 100 | > 100 | > 100 | > 100 | 82
drug2 concentration 10 nM | 97.1 | 92.4 | > 100 | > 100 | 62.4 | > 100 | > 100
drug2 concentration 50 nM | > 100 | 89.5 | > 100 | > 100 | 87.1 | > 100 | > 100
drug2 concentration 100 nM | > 100 | > 100 | > 100 | > 100 | 85.5 | > 100 | > 100
drug2 concentration 500 nM | 58.2 | 61.1 | 40.5 | 44.1 | 86 | 41.3 | 84.4
drug2 concentration 1000 nM | 31.2 | 58.3 | 48.1 | 66.9 | 18.6 | 34.4 | 54.3
drug2 concentration 5000 nM | 16.4 | 30.1 | -2.48 | 43.2 | 29.9 | 7.94 | 52

CN(CCOc1ccc(Cc2sc(O)nc2O)cc1)c1ccccn1 [Rosiglitazone]
cell viability [%]
Conditions | [1] | [2] | [3] | [4] | [5] | [6] | [7] | [8] | [9]
1 nM | 80.1 | 55 | 98.6 | 89.5 | 91.7 | 62.7 | 9.01 | 73.8 | 83.3
10 nM | 72.6 | 24.9 | 92.1 | 85.4 | 63.6 | 60 | 3.3 | 40 | 93
100 nM | 92.5 | 94.9 | 95.7 | 96.7 | 99.4 | > 100 | 91.7 | 87.7 | 99.6
1000 nM | 95.9 | 61.9 | 97.2 | 99 | 79.2 | 88.5 | 92.8 | 67.1 | 94.1
10000 nM | 84.4 | 29.7 | 88.1 | 77.9 | 36 | 66 | 6.86 | 49.2 | 95.3

C[C@]12C=CC(=O)C=C1CC[C@@H]1[C@@H]2[C@@H](O)C[C@@]2(C)[C@H]1CC[C@]2(O)C(=O)CO [Prednisolone]
cell viability [%]
Conditions | [1] | [2] | [3] | [4] | [5] | [6] | [7] | [8] | [9]
1 nM | 83.7 | 99.2 | 96.9 | > 100 | 95 | 66.5 | 40.8 | 73.8 | 95.3
10 nM | 69.7 | 18.2 | 93.5 | 75.7 | 71.2 | 60.7 | 10.3 | 39.2 | 78.8
100 nM | > 100 | 84.8 | 85 | 89.4 | 73.9 | 84.5 | 21.7 | 17.1 | 78.4
1000 nM | > 100 | > 100 | 83 | 78.5 | 46 | 83.6 | 72 | 31.4 | 75.8
10000 nM | 97.2 | > 100 | 64.8 | 66.2 | 35.2 | 83.4 | 20.7 | 2.16 | 53.7

CO[C@H]1C[C@@H]2CC[C@@H](C)[C@@](O)(O2)C(=O)C(=O)N2CCCC[C@H]2C(=O)O[C@H]([C@H](C)C[C@@H]2CC[C@@H](OC(=O)C(C)(CO)CO)[C@H](OC)C2)CC(=O)[C@H](C)/C=C(\C)[C@@H](O)[C@@H](OC)C(=O)[C@H](C)C[C@H](C)/C=C/C=C/C=C/1C [Temsirolimus]
cell viability [%]
Conditions | [1] | [2] | [3] | [4] | [5] | [6] | [7] | [8] | [9]
1 nM | 89.3 | 78.2 | 94.5 | 99.3 | 97.6 | 77.4 | 46.4 | 47.2 | 75.1
10 nM | 47.4 | 48.1 | 81.9 | 88.2 | 86.7 | 68.2 | 11.5 | 40.6 | 50.9
100 nM | 52.9 | 25.1 | 79.7 | 77.1 | 77.1 | 55.9 | 3.45 | 42.5 | 53.1
1000 nM | 70.1 | 49.6 | 88.4 | 96.8 | 95.1 | 73.9 | 58.7 | 78.8 | 59
10000 nM | 51.8 | < 0 | 74.4 | 55.5 | < 0 | < 0 | 0.265 | 4.58 | 24.4
